In patent publication US20240016773A1, “COMPOSITIONS AND METHODS FOR DIAGNOSIS AND TREATMENT OF CONDITIONS RELATED TO AGING” (EPITRACKER, INC., priority 2018, published 2024):

Experiments:
[1] = system: Primary endothelial cells stimulated with IL-1β, TNF-α, and IFNγ; assay: Second cell-based system: Th1 inflammatory and prothrombotic environment; set-up: species or system human
Procedure: (§1) This study examined the impact of synthetic pentadecanoic acid (C15:0) at four concentrations (740 nm and 2.2, 6.7, and 20 μM) on three primary human cell-based activity systems that were exposed to agents that mimicked allergic, thrombotic, and fibrotic disease states. In general, protein-based biomarkers in these systems were measured and compared with controls. Pentadecanoic acid was considered ‘active’ when 2 or more consecutive concentrations changed a given biomarker in the same direction relative to vehicle controls, were outside of the significance envelope of internal controls, and had at least one concentration with an effect size greater than 20% (log 10 ratio >0.1).
The second cell-based system recapitulated a Th1 inflammatory and prothrombotic environment. Primary endothelial cells were stimulated with IL-1β, TNF-α, and IFNγ and incubated with pentadecanoic acid for 24 hours. In addition to controls that were not treated with pentadecanoic acid, a negative, non-stimulated system was also included. Urokinase plasminogen activator receptor (uPAR) activation in this system was measured and compared with controls.

[2] = system: SAg system: venular endothelial cells, peripheral blood mononuclear cells (TCR ligands); assay: BioMAP Diversity PLUS, SAg system; assay type: cell-based, human
Description: The Diversity PLUS panel allows test agent characterization in an unbiased way across a broad set of systems modeling various human disease states. These systems are designed to model complex human tissue and disease biology of the vasculature, skin, lung, and inflammatory tissues. Quantitative measurements of 148 biomarker activities across this broad panel, along with comparative analysis of biological activities from known bioactive agents, were used to predict and compare the efficacy and function of each selected compound at four concentrations (740 nm and 2.2, 6.7 and 20 μM).
BioMAP systems are constructed with one or more primary cell types from healthy human donors, with stimuli (such as cytokines or growth factors) added to capture relevant signaling networks that naturally occur in human tissue or pathological conditions. Vascular biology is modeled in both a Th1 (3C system) and a Th2 (4H system) inflammatory environment, as well as in a Th1 inflammatory state specific to arterial smooth muscle cells (CASM3C system). Additional systems recapitulate aspects of the systemic immune response including monocyte-driven Th1 inflammation (LPS system) or T cell stimulation (SAg system), chronic Th1 inflammation driven by macrophage activation (lMphg system) and the T cell-dependent activation of B cells that occurs in germinal centers (BT system). The BE3C system (Th1) and the BF4T system (Th2) represent airway inflammation of the lung, while the MyoF system models myofibroblast-lung tissue remodeling. Lastly, skin biology is addressed in the KF3CT system modeling Th1 cutaneous inflammation and the HDF3CGF system modeling wound healing.
Each test agent generates a signature BioMAP profile that is created from the changes in protein biomarker readouts within individual system environments. Biomarker readouts (7-17 per system) are selected for therapeutic and biological relevance, are predictive for disease outcomes or specific drug effects and are validated using agents with known mechanism of action (MoA). Each readout is measured quantitatively by immune-based methods that detect protein (e.g., ELISA) or functional assays that measure proliferation and viability. BioMAP readouts are diverse and include cell surface receptors, cytokines, chemokines, matrix molecules and enzymes. In total, the Diversity PLUS panel contains 148 biomarker readouts that capture biological changes that occur within the physiological context of the particular BioMAP system. Specific BioMAP activities have been correlated to in vivo biology, and multiparameter BioMAP profiles have been used to distinguish compounds based on MoA and target selectivity across diverse physiological systems.
Activated BioMAP systems were incubated with each compound for 24 to 72 hours. Protein-based biomarkers from activated cell systems were measured and compared with non-treated control systems.

[3] = system: obese mouse model (C57BL/6J mice fed a high fat diet); assay: High fat diet obese mouse model, daily oral pentadecanoic acid; assay type: in vivo
Procedure: This study examined the impact of daily oral administration of synthetic pentadecanoic acid (C15:0) on total and LDL cholesterol in an obese mouse model. Twenty C57BL/6J mice were fed a high fat diet (HFD) (D12492, 60% kcals fat) for 8 weeks. Study mice were then divided into the following two groups of ten: vehicle controls and pentadecanoic acid—treated (5 mg/kg body weight). The test article was a synthetic powder form stable at room temperature and purchased from Sigma-Aldrich (Products W433400 (≥99% C15:0). The test article was provided daily via gastric gavage for 12 weeks (84 days) while continuing ad libitum access to the HFD. Total cholesterol and low-density lipoprotein (LDL) cholesterol were measured at Day 0 and Day 84. Data from the treated group were compared to the control group using Wilcoxon rank sum analyses. Significance was defined as a P value less than or equal to 0.05.

[4] = system: New Zealand white rabbits fed a high fat diet; assay: High fat diet-fed New Zealand white rabbit model, daily pentadecanoic acid in diet; assay type: in vivo
Procedure: This study examined the impact of daily oral administration of synthetic pentadecanoic acid (C15:0) on serum globulins, cholesterol, and liver fibrosis in an animal model fed a high fat diet. Sixteen New Zealand white rabbits were fed a high fat diet (HFD) (4% peanut oil and 0.5% cholesterol) for 2 weeks. Study rabbits were then divided into the following two groups of eight: high fat diet controls, and high fat diet animals treated with pentadecanoic acid (35 mg/kg body weight). The test article was a synthetic powder form stable at room temperature and purchased from Sigma-Aldrich (Products W433400 (≥99% pentadecanoic acid). The test article was provided daily in the diet for 11 weeks (77 days) while continuing ad libitum access to the HFD. Total cholesterol, platelets, and globulins were measured at Days 0 and 77.
On Day 77, liver tissues from HFD controls and pentadecanoic acid-treated animals were collected and scored histologically for fibrosis by a board-certified veterinary pathologist. Liver tissues were processed into paraffin-embedded blocks for H&E and picrosirius red staining for fibrosis (collagen deposition). Whole picrosirius red stained liver slides were scanned using Aperio ScanScope AT2 at 20×. Fibrosis stages were defined as follows: 0=none, 1=persinusoidal or periportal, 2=perisinusoidal and portal/periportal, 3=bridging fibrosis, 4=cirrhosis. Data from the treated group were compared to the control group using Wilcoxon rank sum analyses. Significance was defined as a P value less than or equal to 0.05.

[5] = system: Primary dermal fibroblasts stimulated with IL-1β, TNFα, IFNγ, EGF, bFGF, and PDGF-BB; assay: Third cell-based system: fibrosis and cell proliferation; set-up: species or system human
Procedure: as §1
The third cell-based system recapitulated fibrosis and cell proliferation. Primary dermal fibroblasts were stimulated with IL-1β, TNFα, IFNγ, EGF, bFGF, and PDGF-BB and incubated with pentadecanoic acid for 24 hours. In addition to controls that were not treated with pentadecanoic acid, a negative, non-stimulated system was also included. Plasminogen activator inhibitor-1 (PAI-1), Collagen-I and fibroblast proliferation (at 72 hours) in this system were measured and compared with controls.

[6] = 24 hours incubation, 6.7 μM and 20 μM bioactive, vs controls
[7] = all four concentrations (740 nm and 2.2, 6.7, and 20 μM)

## CCCCCCCCCCCCCCC(=O)O [Pentadecanoic acid, pentadecanoic acid]
[1]; [6]
  uPAR (FIG. 3): increases
[1]; [7]
  Cytotoxicity: non-cytotoxic
[2]; 6.7 μM
  Significant log10 reduction vs nontreated controls: Monocyte chemoattractant protein 1 (MCP-1): −0.18 log10
[2]; 20.0 μM
  Significant log10 reduction vs nontreated controls: Monocyte chemoattractant protein 1 (MCP-1): −0.15 log10
[3]; 5 mg/kg daily gavage, 12 weeks, HFD mice
  Tolerability of test article: tolerated the test article throughout the study
[3]; Index at Day 84, 5 mg/kg dose daily via gastric gavage for 12 weeks, HFD mice, P 0.032 vs HFD control
  Total Cholesterol: 183 + 25 mg/dl
[3]; Index at Day 84, 5 mg/kg dose daily via gastric gavage for 12 weeks, HFD mice, P 0.036 vs HFD control
  LDL Cholesterol: 6.3 ± 3.6 mg/dL
[3]; oral daily for 12 weeks, obese mice on high fat diet
  Percent body weight gain compared to control mice on high fat diet alone: lower percent body weight gain
[3]; treated group, 5 mg/kg daily gavage, 12 weeks
  Early mortalities: no early mortalities
[4]; 35 mg/kg daily in diet, 11 weeks
  Early mortalities: no early mortalities
[4]; 35 mg/kg daily in diet, 11 weeks, HFD rabbits
  Tolerability of test article: tolerated the test article throughout the study
[4]; 35 mg/kg daily oral for 11 weeks, histology, picrosirius red
  Stage 3 bridging fibrosis in liver (FIG. 1): lack of Stage 3 bridging fibrosis
[4]; Day 77, 35 mg/kg, HFD rabbits
  Platelets compared with HFD control group: lower
[4]; Index at Day 77 (head), 35 mg/kg dose daily in diet 11 weeks, HFD rabbits, P 0.004
  Globulins: 1.3 ± 0.7 G/dl
[4]; Index at Day 77 (head), 35 mg/kg dose daily in diet 11 weeks, HFD rabbits, plasma, P 0.024
  Cholesterol: 2516 ± 746 mg/dL
[4]; Index at Day 77 (head), 35 mg/kg dose, n = 8, stage score 0-4, P 0.016
  Liver Fibrosis Stage: 2.3 ± 0.5
[5]; [6]
  Collagen-I (FIG. 4): decreases
  PAI-1 (FIG. 4): decreases
[5]; 72 hours, 6.7 μM and 20 μM bioactive, vs controls
  72-hour fibroblast proliferation (FIG. 4): decreases
[5]; [7]
  Cytotoxicity: non-cytotoxic
